The values below come from article PMC7284125, “Identification of annotated bioactive molecules that impair motility of the blood fluke Schistosoma mansoni” (International Journal for Parasitology: Drugs and Drug …, 2020).

The first experiment has as its system S. mansoni schistosomulae. The experiment is described as follows: Phenotypic primary screen assay on schistosomulae (phenotype; viability by methylene blue dye exclusion). Format: cell-based, Schistosoma mansoni. The note with it: three-day-old schistosomulae, 10 μM, 24 h; estimated 5 days post compound exposure. Summed up:
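Parasites lacking contraction/relaxation cycles and showing dark internal granulations counted as dead. Movement and body shape were compared with DMSO-treated controls under a stereo microscope at 24 h and at five days of exposure. Larvae came from infected snails shed under light for 2 h at 32 °C.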
Turning to `CCCCCCCCOc1ccccc1C(=O)Nc1ccc(C(=O)OCC[N+](C)(CC)CC)cc1` [Otilonium], the Phenotype result was “blebbing”.

Consider `C=CC(=O)Nc1cc(Nc2nccc(-c3cn(C)c4ccccc34)n2)c(OC)cc1N(C)CCN(C)C` [AZD9291], for which the Phenotype entry is “dark, granulated, some blebbing”.

Take `CN(C)[C@@H](CCOc1cccc2ccccc12)c1ccccc1` [Dapoxetine]: the Phenotype result is “elongated, granulated”.

As for `COCCCN1CCC(NC(=O)c2cc(Cl)c(N)c3c2OCC3)CC1` [Prucalopride], the Phenotype entry is “elongated”.

Turning to `Cc1c(C(=O)NN2CCCCC2)nn(-c2ccc(Cl)cc2Cl)c1-c1ccc(Cl)cc1` [Rimonabant], the Phenotype entry is listed as “abnormal morphology, granulated”.

Turning to `CC(C)(C)c1cc(NC(=O)Nc2ccc(-c3cn4c(n3)sc3cc(OCCN5CCOCC5)ccc34)cc2)no1` [Quizartinib], the Phenotype entry was “granulated”.

The subject of a further experiment is S. mansoni adult worms. The experiment is described as follows: Motility assay on adult parasites (pixel displacement, relative to DMSO control). The format is cell-based, Schistosoma mansoni. As to conditions: secondary screen, 10 μM, D1, Female adult worms. The procedure, abridged:
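Unpaired adult worms from mice 6 weeks post-infection kept in OPTI-MEM with 5% dialyzed FBS and exposed to compounds at 1 and 10 μM for 24 h. Motility filmed 1 min at 10 frames/s, quantified by pixel displacement versus DMSO-treated worms; recovery followed up to five days after washout.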
Molecule `CCCCCCCCOc1ccccc1C(=O)Nc1ccc(C(=O)OCC[N+](C)(CC)CC)cc1` [Otilonium] had a Fractional motility of 0.10.

In the case of `C=CC(=O)Nc1cc(Nc2nccc(-c3cn(C)c4ccccc34)n2)c(OC)cc1N(C)CCN(C)C` [AZD9291], the Fractional motility was -0.59.

As to `CN(C)[C@@H](CCOc1cccc2ccccc12)c1ccccc1` [Dapoxetine], the Fractional motility is recorded as 2.14.

In turn, `COCCCN1CCC(NC(=O)c2cc(Cl)c(N)c3c2OCC3)CC1` [Prucalopride] displayed a Fractional motility of -0.26.

As to `Cc1c(C(=O)NN2CCCCC2)nn(-c2ccc(Cl)cc2Cl)c1-c1ccc(Cl)cc1` [Rimonabant], the Fractional motility is -0.30.

Turning to `CC(C)(C)c1cc(NC(=O)Nc2ccc(-c3cn4c(n3)sc3cc(OCCN5CCOCC5)ccc34)cc2)no1` [Quizartinib], the Fractional motility came to 0.64.

Still in this experiment, the particulars now being: secondary screen, 10 μM, D1, Male adult worms.
Consider `CCCCCCCCOc1ccccc1C(=O)Nc1ccc(C(=O)OCC[N+](C)(CC)CC)cc1` [Otilonium], for which the Fractional motility is 0.16.

In turn, `C=CC(=O)Nc1cc(Nc2nccc(-c3cn(C)c4ccccc34)n2)c(OC)cc1N(C)CCN(C)C` [AZD9291] came in with a Fractional motility of 0.48.

`CN(C)[C@@H](CCOc1cccc2ccccc12)c1ccccc1` [Dapoxetine]: the Fractional motility is listed as 2.05.

The molecule `COCCCN1CCC(NC(=O)c2cc(Cl)c(N)c3c2OCC3)CC1` [Prucalopride] registered a Fractional motility of 0.72.

With `Cc1c(C(=O)NN2CCCCC2)nn(-c2ccc(Cl)cc2Cl)c1-c1ccc(Cl)cc1` [Rimonabant], the Fractional motility is given as 0.0659.

In turn, `CC(C)(C)c1cc(NC(=O)Nc2ccc(-c3cn4c(n3)sc3cc(OCCN5CCOCC5)ccc34)cc2)no1` [Quizartinib] displayed a Fractional motility of 4.64.

The experiment is the same for the next values; noted with them: secondary screen, 10 μM, D5, Female adult worms.
Regarding `CCCCCCCCOc1ccccc1C(=O)Nc1ccc(C(=O)OCC[N+](C)(CC)CC)cc1` [Otilonium], the Fractional motility was -0.67.

`C=CC(=O)Nc1cc(Nc2nccc(-c3cn(C)c4ccccc34)n2)c(OC)cc1N(C)CCN(C)C` [AZD9291] returned a Fractional motility of -0.14.

`CN(C)[C@@H](CCOc1cccc2ccccc12)c1ccccc1` [Dapoxetine] showed a Fractional motility of -0.24.

As to `COCCCN1CCC(NC(=O)c2cc(Cl)c(N)c3c2OCC3)CC1` [Prucalopride], the Fractional motility was -0.27.

The molecule `Cc1c(C(=O)NN2CCCCC2)nn(-c2ccc(Cl)cc2Cl)c1-c1ccc(Cl)cc1` [Rimonabant] had a Fractional motility of -0.41.

In the case of `CC(C)(C)c1cc(NC(=O)Nc2ccc(-c3cn4c(n3)sc3cc(OCCN5CCOCC5)ccc34)cc2)no1` [Quizartinib], the Fractional motility was -0.59.

The experiment is the same for the next values; noted with them: secondary screen, 10 μM, D5, Male adult worms.
Molecule `CCCCCCCCOc1ccccc1C(=O)Nc1ccc(C(=O)OCC[N+](C)(CC)CC)cc1` [Otilonium] showed a Fractional motility of -0.65.

The molecule `C=CC(=O)Nc1cc(Nc2nccc(-c3cn(C)c4ccccc34)n2)c(OC)cc1N(C)CCN(C)C` [AZD9291] registered a Fractional motility of -0.20.

For `CN(C)[C@@H](CCOc1cccc2ccccc12)c1ccccc1` [Dapoxetine], the Fractional motility is -0.50.

`COCCCN1CCC(NC(=O)c2cc(Cl)c(N)c3c2OCC3)CC1` [Prucalopride] registered a Fractional motility of 0.34.

`Cc1c(C(=O)NN2CCCCC2)nn(-c2ccc(Cl)cc2Cl)c1-c1ccc(Cl)cc1` [Rimonabant] returned a Fractional motility of -0.55.

Consider `CC(C)(C)c1cc(NC(=O)Nc2ccc(-c3cn4c(n3)sc3cc(OCCN5CCOCC5)ccc34)cc2)no1` [Quizartinib], for which the Fractional motility was -0.09.

The subject of another experiment is S. mansoni schistosomulae. The experiment is described as follows: Motility assay on schistosomulae (pixel displacement, relative to DMSO control). Format: cell-based, Schistosoma mansoni. The note with it: Schistosoma mansoni, 120 h; schistosomulae, secondary screen, 24h exposure, read at D5, 1 µM; read-out: Fractional motility. The procedure, abridged:
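Motility was scored by pixel displacement from 1-min videos (10 frames/s) and compared with DMSO controls. Schistosomulae (200/well, Opti-MEM, 5% dialyzed FBS, no antibiotics) received compound at 1 or 10 μM for 24 h; selected hits were also followed at 1, 3, 6 and 12 h.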
For the molecule `CCCCCCCCOc1ccccc1C(=O)Nc1ccc(C(=O)OCC[N+](C)(CC)CC)cc1` [Otilonium], the activity at 1 µM is 31%.

Consider `C=CC(=O)Nc1cc(Nc2nccc(-c3cn(C)c4ccccc34)n2)c(OC)cc1N(C)CCN(C)C` [AZD9291], for which the activity at 1 µM turned out to be 134%.

Turning to `COCCCN1CCC(NC(=O)c2cc(Cl)c(N)c3c2OCC3)CC1` [Prucalopride], the activity at 1 µM is -11%.

On to `Cc1c(C(=O)NN2CCCCC2)nn(-c2ccc(Cl)cc2Cl)c1-c1ccc(Cl)cc1` [Rimonabant], for which the activity at 1 µM was -21%.

As for `CC(C)(C)c1cc(NC(=O)Nc2ccc(-c3cn4c(n3)sc3cc(OCCN5CCOCC5)ccc34)cc2)no1` [Quizartinib], the activity at 1 µM was -2.37%.

Staying with this experiment, now noted: Schistosoma mansoni; Selleckchem customized library secondary screen, 24h, D1, 1 µM; read-out: Fractional motility.
Consider `CN(C)[C@@H](CCOc1cccc2ccccc12)c1ccccc1` [Dapoxetine], for which the activity at 1 µM is 253%.

The experiment is the same for the next values; noted with them: Schistosoma mansoni; schistosomulae, secondary screen, 24h exposure, read at D1, 1 µM; read-out: Fractional motility.
`CCCCCCCCOc1ccccc1C(=O)Nc1ccc(C(=O)OCC[N+](C)(CC)CC)cc1` [Otilonium]: the activity at 1 µM was -72%.

Take `C=CC(=O)Nc1cc(Nc2nccc(-c3cn(C)c4ccccc34)n2)c(OC)cc1N(C)CCN(C)C` [AZD9291]: the activity at 1 µM was 89%.

For `COCCCN1CCC(NC(=O)c2cc(Cl)c(N)c3c2OCC3)CC1` [Prucalopride], the activity at 1 µM came out at 121%.

Turning to `Cc1c(C(=O)NN2CCCCC2)nn(-c2ccc(Cl)cc2Cl)c1-c1ccc(Cl)cc1` [Rimonabant], the activity at 1 µM came to 433%.

Still in this experiment, the particulars now being: Selleckchem customized library secondary screen, 24h, D1, 10 µM.
The molecule `CN(C)[C@@H](CCOc1cccc2ccccc12)c1ccccc1` [Dapoxetine] showed a Fractional motility of 69.58.

Still in this experiment, the particulars now being: Selleckchem customized library secondary screen, 24h, D5, 10 µM.
Consider `CN(C)[C@@H](CCOc1cccc2ccccc12)c1ccccc1` [Dapoxetine], for which the Fractional motility is reported as 15.51.

The same experiment, now with this note: schistosomulae, 1h exposure, read at D1, 10 µM.
As for `C=CC(=O)Nc1cc(Nc2nccc(-c3cn(C)c4ccccc34)n2)c(OC)cc1N(C)CCN(C)C` [AZD9291], the Fractional motility turned out to be 0.30.

Staying with this experiment, now noted: schistosomulae, 1h exposure, read at D5, 10 µM.
Consider `C=CC(=O)Nc1cc(Nc2nccc(-c3cn(C)c4ccccc34)n2)c(OC)cc1N(C)CCN(C)C` [AZD9291], for which the Fractional motility is -0.42.

Still in this experiment, the particulars now being: schistosomulae, 3h exposure, read at D1, 10 µM.
`C=CC(=O)Nc1cc(Nc2nccc(-c3cn(C)c4ccccc34)n2)c(OC)cc1N(C)CCN(C)C` [AZD9291] displayed a Fractional motility of 1.06.

The same experiment, now with this note: schistosomulae, 3h exposure, read at D5, 10 µM.
The molecule `C=CC(=O)Nc1cc(Nc2nccc(-c3cn(C)c4ccccc34)n2)c(OC)cc1N(C)CCN(C)C` [AZD9291] displayed a Fractional motility of -0.33.

Staying with this experiment, now noted: schistosomulae, 6h exposure, read at D1, 10 µM.
Turning to `C=CC(=O)Nc1cc(Nc2nccc(-c3cn(C)c4ccccc34)n2)c(OC)cc1N(C)CCN(C)C` [AZD9291], the Fractional motility is listed as -0.37.

Still in this experiment, the particulars now being: schistosomulae, 6h exposure, read at D5, 10 µM.
The molecule `C=CC(=O)Nc1cc(Nc2nccc(-c3cn(C)c4ccccc34)n2)c(OC)cc1N(C)CCN(C)C` [AZD9291] showed a Fractional motility of 0.0374.

Still in this experiment, the particulars now being: schistosomulae, secondary screen, 24h exposure, read at D1, 10 µM.
Molecule `CCCCCCCCOc1ccccc1C(=O)Nc1ccc(C(=O)OCC[N+](C)(CC)CC)cc1` [Otilonium] registered a Fractional motility of 0.56.

For `C=CC(=O)Nc1cc(Nc2nccc(-c3cn(C)c4ccccc34)n2)c(OC)cc1N(C)CCN(C)C` [AZD9291], the Fractional motility was 7.13.

The molecule `COCCCN1CCC(NC(=O)c2cc(Cl)c(N)c3c2OCC3)CC1` [Prucalopride] displayed a Fractional motility of 6.36.

For `Cc1c(C(=O)NN2CCCCC2)nn(-c2ccc(Cl)cc2Cl)c1-c1ccc(Cl)cc1` [Rimonabant], the Fractional motility was 12.27.

The experiment is the same for the next values; noted with them: schistosomulae, secondary screen, 24h exposure, read at D5, 10 µM.
`CCCCCCCCOc1ccccc1C(=O)Nc1ccc(C(=O)OCC[N+](C)(CC)CC)cc1` [Otilonium] showed a Fractional motility of -0.13.

`C=CC(=O)Nc1cc(Nc2nccc(-c3cn(C)c4ccccc34)n2)c(OC)cc1N(C)CCN(C)C` [AZD9291] gave a Fractional motility of -0.73.

In turn, `COCCCN1CCC(NC(=O)c2cc(Cl)c(N)c3c2OCC3)CC1` [Prucalopride] showed a Fractional motility of -0.28.

In turn, `Cc1c(C(=O)NN2CCCCC2)nn(-c2ccc(Cl)cc2Cl)c1-c1ccc(Cl)cc1` [Rimonabant] gave a Fractional motility of 4.07.

The molecule `CC(C)(C)c1cc(NC(=O)Nc2ccc(-c3cn4c(n3)sc3cc(OCCN5CCOCC5)ccc34)cc2)no1` [Quizartinib] had a Fractional motility of -0.36.

Another experiment has as its system S. mansoni schistosomulae. Put plainly: Phenotypic primary screen assay on schistosomulae (phenotype; viability by methylene blue dye exclusion). Format: cell-based. The note with it: Schistosoma mansoni; three-day-old schistosomulae, 10 μM, 24 h; calculated 5 days post compound exposure; read-out: Viability (%).
`CCCCCCCCOc1ccccc1C(=O)Nc1ccc(C(=O)OCC[N+](C)(CC)CC)cc1` [Otilonium]: the viability (usually a read-out of living cells in per cent, often relative to untreated cells) at 10 µM was 98.5%.

For `C=CC(=O)Nc1cc(Nc2nccc(-c3cn(C)c4ccccc34)n2)c(OC)cc1N(C)CCN(C)C` [AZD9291], the viability at 10 µM was 39.5%.

For the molecule `CN(C)[C@@H](CCOc1cccc2ccccc12)c1ccccc1` [Dapoxetine], the viability at 10 µM was 97.5%.

As for `COCCCN1CCC(NC(=O)c2cc(Cl)c(N)c3c2OCC3)CC1` [Prucalopride], the viability at 10 µM was 96%.

As to `Cc1c(C(=O)NN2CCCCC2)nn(-c2ccc(Cl)cc2Cl)c1-c1ccc(Cl)cc1` [Rimonabant], the viability at 10 µM is 98.5%.

For `CC(C)(C)c1cc(NC(=O)Nc2ccc(-c3cn4c(n3)sc3cc(OCCN5CCOCC5)ccc34)cc2)no1` [Quizartinib], the viability at 10 µM is 54%.
